Reference: article PMC5692573 (Proceedings of the National Academy of Sciences of the …, 2017)

Key:
[1] = target: Kif18A (Homo sapiens, UniProt Q8NI77); assay: cryo-EM reconstruction; format: binding
[2] = target: αβ-tubulin heterodimer (in paclitaxel-stabilized microtubules, or as curved tubulin in rings); assay: cryo-EM 2D class averages

Molecule: Nc1ncnc2c1ncn2[C@@H]1O[C@H](CO[P@](=O)(O)O[P@](=O)(O)NP(=O)(O)O)[C@@H](O)[C@H]1O [AMPPNP]
- cryo-EM reconstruction (~6 Å) of MT-bound Kif18A_MDNL with AMPPNP [1]: In the presence of AMPPNP, the nucleotide-binding site is clearly occupied by the bound nucleotide

B1: Kif18A_MDNL, monomeric human Kif18A motor-neck linker construct (domain or fragment)
chain: MSVTEEDLCHHMKVVVRVRPENTKEKAAGFHKVVHVVDKHILVFDPKQEEVSFFHGKKTTNQNVIKKQNKDLKFVFDAVFDETSTQSEVFEHTTKPILRSFLNGYNCTVLAYGATGAGKTHTMLGSADEPGVMYLTMLHLYKCMDEIKEEKICSTAVSYLEVYNEQIRDLLVNSGPLAVREDTQKGVVVHGLTLHQPKSSEEILHLLDNGNKNRTQHPTDMNATSSRSHAVFQIYLRQQDKTASINQNVRIAKMSLIDLAGSERASTSGAKGTRFVEGTNINRSLLALGNVINALADSKRKNQHIPYRNSKLTRLLKDSLGGNCQTIMIAAVSPSSVFYDDTYNTLKYANRAKDIKSSLKSNVLNVNNHITQYV
- stoichiometry N [2]: 1
